Patent publication US20240270695A1, “COMPOUNDS, COMPOSITIONS AND METHODS OF TREATING DISORDERS” (Chengdu Anticancer Bioscience LTD, priority 2021, published 2024)

Experiments:
[1] = test system: RPE-Neo or RPE-MYC or RPE-MYC expressing an EGFP-Histone 2B fusion protein; experiment: Phenotypic screening assay (arrest in mitosis, change in DNA content, cell death; GE IN-Cell Analyzer 2000); assay type: cell-based; conditions: Homo sapiens, compounds 20 nM to 20 μM, 24, 48 or 72 hours
[2] = test system: RPE-Neo or RPE-MYC or RPE-MYC expressing an EGFP-Histone 2B fusion protein; experiment: MTT assays of cellular proliferation; assay type: cell-based; conditions: Homo sapiens, min. effective conc., read-out: Proliferative arrest (<50%)
[3] = read-out: Min. Effective conc. for Polyploidy (≥10%)
[4] = min. effective conc., read-out: Cell Death (>30%)
[5] = min. effective conc., read-out: Mitotic Arrest (≥10%)

Row | SMILES | minimal effective concentration [1, 3] [µM] | minimal effective concentration [1, 4] [µM] | minimal effective concentration [1, 5] [µM] | minimal effective concentration [2] [µM]
1 | CNC(=O)C1=C(O)c2ccccc2N(Cc2cc(C)c(F)c(C)c2)C(=O)C1 [Example 121, 1-(4-fluoro-3,5-dimethylbenzyl)-5-hydroxy-N-methyl-2-oxo-2,3-dihydro-1H-benzo[b]azepine-4-carboxamide] | 10 to 30 | 10 to 30 | 10 to 30 | 10 to 30
2 | CNC(=O)C1=C(O)c2ccccc2N(Cc2cc(F)ccc2F)C(=O)C1 [Example 106, 1-(2,5-difluorobenzyl)-5-hydroxy-N-methyl-2-oxo-2,3-dihydro-1H-benzo[b]azepine-4-carboxamide] | 30 to 1000 | 30 to 1000 | 30 to 1000 | 30 to 1000
3 | CNC(=O)C1=C(O)c2ccccc2N(Cc2ccc(C(C)=O)cc2)C(=O)C1 [Example 90, 1-(4-acetylbenzyl)-5-hydroxy-N-methyl-2-oxo-2,3-dihydro-1H-benzo[b]azepine-4-carboxamide] | 30 to 1000 | 30 to 1000 | 30 to 1000 | 30 to 1000
4 | CNC(=O)C1=C(O)c2ccc(OCc3ccc(OC)c(F)c3)cc2N(Cc2ccc(C)c(F)c2)C(=O)C1 [Example 133, 8-((3-fluoro-4-methoxybenzyl)oxy)-1-(3-fluoro-4-methylbenzyl)-5-hydroxy-N-methyl-2-oxo-2,3-dihydro-1H-benzo[b]azepine-4-carboxamide] | 1 to 10 | 1 to 10 | 1 to 10 | 1 to 10
5 | CNC(=O)C1=C(O)c2ccccc2N(Cc2cc(F)ccc2OC)C(=O)C1 [Example 114, 1-(5-fluoro-2-methoxybenzyl)-5-hydroxy-N-methyl-2-oxo-2,3-dihydro-1H-benzo[b]azepine-4-carboxamide] | 1 to 10 | 1 to 10 | 1 to 10 | 1 to 10
6 | CCc1ccc(CN2C(=O)CC(C(=O)NC)=C(O)c3ccccc32)cc1 [Example 86, 1-(4-ethylbenzyl)-5-hydroxy-N-methyl-2-oxo-2,3-dihydro-1H-benzo[b]azepine-4-carboxamide] | 1 to 10 | 1 to 10 | 1 to 10 | 1 to 10
7 | CNC(=O)C1=C(O)c2ccccc2N(Cc2cccc(F)c2)C(=O)C1 [Example 77, 1-(3-fluorobenzyl)-5-hydroxy-N-methyl-2-oxo-2,3-dihydro-1H-benzo[b]azepine-4-carboxamide] | 30 to 1000 | 30 to 1000 | 30 to 1000 | 30 to 1000
8 | CNC(=O)C1=C(O)c2ccccc2N(Cc2ccccc2C)C(=O)C1 [Example 81, 5-hydroxy-N-methyl-1-(2-methylbenzyl)-2-oxo-2,3-dihydro-1H-benzo[b]azepine-4-carboxamide] | 30 to 1000 | 30 to 1000 | 30 to 1000 | 30 to 1000
9 | CNC(=O)C1=C(O)c2ccc(OC(F)F)cc2N(Cc2ccc(C)c(F)c2)C(=O)C1 [Example 129, 8-(difluoromethoxy)-1-(3-fluoro-4-methylbenzyl)-5-hydroxy-N-methyl-2-oxo-2,3-dihydro-1H-benzo[b]azepine-4-carboxamide] | 0.001 to 1 | 0.001 to 1 | 0.001 to 1 | 0.001 to 1
10 | CNC(=O)C1=C(O)c2ccccc2N(Cc2ccc(Cl)c(F)c2)C(=O)C1 [Example 124, 1-(4-chloro-3-fluorobenzyl)-5-hydroxy-N-methyl-2-oxo-2,3-dihydro-1H-benzo[b]azepine-4-carboxamide] | 1 to 10 | 1 to 10 | 1 to 10 | 1 to 10
11 | CC(c1ccc(F)cc1)N1C(=O)CCC(=O)c2ccccc21 (centres unmarked) [Example 82, 1-(1-(4-fluorophenyl)ethyl)-3,4-dihydro-1H-benzo[b]azepine-2,5-dione] | 30 to 1000 | 30 to 1000 | 30 to 1000 | 30 to 1000
12 | CNC(=O)C1=C(O)c2cc(OC)ccc2N(Cc2ccc(C)c(F)c2)C(=O)C1 [Example 137, 1-(3-fluoro-4-methylbenzyl)-5-hydroxy-7-methoxy-N-methyl-2-oxo-2,3-dihydro-1H-benzo[b]azepine-4-carboxamide] | 1 to 10 | 1 to 10 | 1 to 10 | 1 to 10
13 | CNC(=O)C1=C(O)c2ccc(C#N)cc2N(Cc2ccc(C)c(F)c2)C(=O)C1 [Example 139] | 1 to 10 | 1 to 10 | 1 to 10 | 1 to 10
14 | CNC(=O)C1CC(=O)N(Cc2c(C)cccc2C)c2ccccc2C1=O (centres unmarked) [Example 99, 1-(2,6-dimethylbenzyl)-5-hydroxy-N-methyl-2-oxo-2,3-dihydro-1H-benzo[b]azepine-4-carboxamide] | 30 to 1000 | 30 to 1000 | 30 to 1000 | 30 to 1000
15 | CNC(=O)C1=C(O)c2ccccc2N(Cc2ccc(C#N)cc2)C(=O)C1 [Example 85, 1-(4-cyanobenzyl)-5-hydroxy-N-methyl-2-oxo-2,3-dihydro-1H-benzo[b]azepine-4-carboxamide] | 30 to 1000 | 30 to 1000 | 30 to 1000 | 30 to 1000
16 | CNC(=O)C1=C(O)c2ccccc2N(Cc2ccc(Cl)cc2)C(=O)C1 [Example 83, 1-(4-chlorobenzyl)-5-hydroxy-N-methyl-2-oxo-2,3-dihydro-1H-benzo[b]azepine-4-carboxamide] | 10 to 30 | 10 to 30 | 10 to 30 | 10 to 30
17 | CNC(=O)C1CC(=O)N(Cc2ccc(-c3ccccc3)cc2)c2ccccc2C1=O (centres unmarked) [Example 89, 1-([1,1′-biphenyl]-4-ylmethyl)-5-hydroxy-N-methyl-2-oxo-2,3-dihydro-1H-benzo[b]azepine-4-carboxamide] | 30 to 1000 | 30 to 1000 | 30 to 1000 | 30 to 1000
18 | CNC(=O)C1=C(O)c2ccccc2N(Cc2cc(F)c(F)c(F)c2)C(=O)C1 [Example 105, 5-hydroxy-N-methyl-2-oxo-1-(3,4,5-trifluorobenzyl)-2,3-dihydro-1H-benzo[b]azepine-4-carboxamide] | 30 to 1000 | 30 to 1000 | 30 to 1000 | 30 to 1000
19 | CNC(=O)C1=C(O)c2ccccc2N(Cc2ccsc2)C(=O)C1 [Example 71, 5-hydroxy-N-methyl-2-oxo-1-(thiophen-3-ylmethyl)-2,3-dihydro-1H-benzo[b]azepine-4-carboxamide] | 30 to 1000 | 30 to 1000 | 30 to 1000 | 30 to 1000
20 | CCCCc1ccc(CN2C(=O)CC(C(=O)NC)=C(O)c3ccccc32)cc1 [Example 88] | 30 to 1000 | 30 to 1000 | 30 to 1000 | 30 to 1000
21 | CCOc1ccc2c(c1)N(Cc1ccc(C)c(F)c1)C(=O)CC(C(=O)NC)=C2O [Example 128, 8-ethoxy-1-(3-fluoro-4-methylbenzyl)-5-hydroxy-N-methyl-2-oxo-2,3-dihydro-1H-benzo[b]azepine-4-carboxamide] | 1 to 10 | 1 to 10 | 1 to 10 | 1 to 10
22 | CNC(=O)C1CC(=O)N(Cc2ccc(C)cc2C)c2ccccc2C1=O (centres unmarked) [Example 101, 1-(2,4-dimethylbenzyl)-5-hydroxy-N-methyl-2-oxo-2,3-dihydro-1H-benzo[b]azepine-4-carboxamide] | 1 to 10 | 1 to 10 | 1 to 10 | 1 to 10
23 | CNC(=O)C1=C(O)c2ccc(OC)cc2N(Cc2ccc(C)c(F)c2)C(=O)C1 [Example 127, 1-(3-fluoro-4-methylbenzyl)-5-hydroxy-8-methoxy-N-methyl-2-oxo-2,3-dihydro-1H-benzo[b]azepine-4-carboxamide] | 0.001 to 1 | 0.001 to 1 | 0.001 to 1 | 0.001 to 1
24 | CNC(=O)C1=C(O)c2ccccc2N(Cc2cccc(OC)c2)C(=O)C1 [Example 92, 5-hydroxy-1-(3-methoxybenzyl)-N-methyl-2-oxo-2,3-dihydro-1H-benzo[b]azepine-4-carboxamide] | 10 to 30 | 10 to 30 | 10 to 30 | 10 to 30
25 | CNC(=O)C1=C(O)c2ccccc2N(Cc2ccc(C)cc2)C(=O)C1 [Example 79, 5-hydroxy-N-methyl-1-(4-methylbenzyl)-2-oxo-2,3-dihydro-1H-benzo[b]azepine-4-carboxamide] | 1 to 10 | 1 to 10 | 1 to 10 | 1 to 10
26 | CNC(=O)C1CC(=O)N(Cc2c(F)cccc2F)c2ccccc2C1=O (centres unmarked) [Example 108, 1-(2,6-difluorobenzyl)-5-hydroxy-N-methyl-2-oxo-2,3-dihydro-1H-benzo[b]azepine-4-carboxamide] | 30 to 1000 | 30 to 1000 | 30 to 1000 | 30 to 1000
